In patent US20250115628A1, “FLUORINATED FLUOROPHORES” (HOWARD HUGHES MEDICAL INSTITUTE, priority 2023, published 2025):
Read-outs that look alike come from different tables or passages of the source.

Experiments:
[1] = General UV-vis and fluorescence spectroscopy; assay type: physicochemical; conditions: 10 mM HEPES, pH 7.3
Method: Spectroscopy was performed using 1^−cm path length, 3.5^−mL quartz cuvettes or 1^−cm path length, 1.4^−mL semi-micro quartz cuvettes from Starna Cells. All measurements were taken at ambient temperature (22±2° C.). Absorption spectra were recorded on a Cary Model 100 spectrometer (Agilent), and fluorescence spectra were recorded on a Cary Eclipse fluorometer (Varian). The spectra, maximum absorption wavelength (labs), extinction coefficient at λabs (8), and maximum emission wavelength (em) were measured in 10 mM HEPES, pH 7.3 buffer (rhodamines and Malachite Green derivative 49) or 0.1 M NaOH (fluoresceins); the reported values for e are averages (n=3). Normalized spectra are shown for clarity.

[2] = Quantum yield determination; assay type: physicochemical; conditions: 10 mM HEPES, pH 7.3
Method: All reported absolute fluorescence quantum yield values (Φf) were measured using a Quantaurus-QY spectrometer (model C11374, Hamamatsu). This instrument uses an integrating sphere to determine photons absorbed and emitted by a sample. Measurements were carried out using dilute samples (A<0.1), and self-absorption corrections were performed using the instrument software.^81

[3] = Determination of KL-Z (lactone-zwitterion equilibrium constant); assay type: physicochemical; design: key: KL-Z = (εdw/εmax)/(1−εdw/εmax); εdw measured in 1:1 dioxane/water; conditions: 1:1 dioxane:H2O
Method: KL-Z was calculated using the following equation:^16, 18 KL-Z=(εdw/εmax)/(1−εdw/εmax). εdw is the extinction coefficient of the dyes in a 1:1 (v/v) dioxane/water solvent mixture; this dioxane/water mixture was chosen to give the maximum spread of KL-Z values across all classes of rhodamines.^18 εmax refers to the maximal extinction coefficients measured in different solvent mixtures empirically determined depending on dye type: 0.1% v/v trifluoroacetic acid in ethanol for 18, 20, 29, 34, 36, 70-72, 81-83, 93-95, 99-102, and 104; 0.1% v/v trifluoroacetic acid in 2,2,2^−trifluoroethanol for all other rhodamine variants. A accurate determination of low KL-Z values is complicated by the relatively poor sensitivity of absorbance measurements.

[4] = rhodamine derivatives; 10 mM HEPES, pH 7.3; data from the inventors' published work; cited from earlier work

ε ([1]; rhodamine derivatives) | λabs ([1]; rhodamine derivatives) [nm] | λem ([1]; rhodamine derivatives) [nm] | Φf ([2]; rhodamine derivatives) | KL-Z ([3]; rhodamine derivatives) | Molecule | ε ([1]; quinolinyl rhodamines) | λabs ([1]; quinolinyl rhodamines) [nm] | λem ([1]; quinolinyl rhodamines) [nm] | Φf ([2]; quinolinyl rhodamines) | KL-Z ([3]; quinolinyl rhodamines) | λabs [4] [nm]
 |  |  |  |  | CC1=CC(C)(C)N(C)c2cc3c(cc21)C(c1ccccc1C(=O)[O-])=c1cc2c(cc1O3)=[N+](C)C(C)(C)C=C2C [compound 103, 2^−(1,2,2,4,8,10,10,11-Octamethyl-1,2,10,11-tetrahydropyrano[3,2^−g:5,6^−g]diquinolin-13^−ium-6^−yl)benzoate] | 95,200 M^−1cm^−1 | 585 | 610 | 0.73 | 4.44 | 
2,700 M^−1cm^−1 | 645 |  |  | 0.344 | C=C/C=C(C=C)/[N+](C)=C1\C=CC2=C(c3c(F)c(F)c(F)c(F)c3C(=O)[O-])c3ccc(N(C)c4ccccc4)cc3C(C)(C)C2=C1 [compound 65, JQ645] |  |  |  |  |  | 
 |  |  |  |  | CC1=CC(C)(C)N(C)c2cc3c(cc21)C(c1c(F)c(F)c(F)c(F)c1C(=O)[O-])=c1cc2c(cc1O3)=[N+](C)C(C)(C)C=C2C [compound 11, 2,3,4,5^−Tetrafluoro-6^−(1,2,2,4,8,10,10,11^−octamethyl-1,2,10,11-tetrahydropyrano[3,2^−g:5,6^−g]diquinolin-13^−ium-6^−yl)benzoate] | 121,000 M^−1cm^−1 | 610 | 630 | 0.68 | 7.88 | 
 |  |  |  |  | CC1=CC(C)(C)Nc2cc3c(cc21)C(c1c(F)c(F)c(F)c(F)c1C(=O)O)=c1cc2c(cc1[Si]3(C)C)=NC(C)(C)C=C2C [compound 36, 2,3,4,5^−Tetrafluoro-6^−(2,2,4,8,10,10,13,13^−octamethyl-2,10,11,13-tetrahydrosilino[3,2^−g:5,6^−g]diquinolin-6^−ylium-6(1H)-yl)benzoate] | 85,900 M^−1cm^−1 | 713 | 742 |  | 1.09 | 
110,000 M^−1cm^−1 | 597 | 616 | 0.67 | 13.4 | O=C([O-])c1c(F)c(F)c(F)c(F)c1C1=c2cc3c4c(c2Oc2c1cc1c5c2CCCN5CCC1)CCC[N+]=4CCC3 [compound 16, 4,5,6,7^−Tetrafluoro-rhodamine 101] |  |  |  |  |  | 
 |  |  |  |  | CC1CC(C)(C)Nc2cc3c(cc21)C(c1ccccc1C(=O)O)=c1cc2c(cc1[Si]3(C)C)=NC(C)(C)CC2C (stereo not drawn) [compound 100, 2^−(2,2,4,8,10,10,13,13-Octamethyl-2,3,4,8,9,10,11,13-octahydrosilino[3,2^−g:5,6^−g]diquinolin-6^−ylium-6(1H)-yl)-benzoate] | 10,400 M^−1cm^−1 | 638 | 655 | 0.34 | 0.0220 | 
84,500 M^−1cm^−1 | 516 | 536 | 0.64 | 9.81 | N=c1ccc2c(-c3c(F)c(F)c(F)c(F)c3C(=O)O)c3ccc(N)cc3oc-2c1 [compound 70, 4,5,6,7^−Tetrafluoro-rhodamine 110] |  |  |  |  |  | 
96,400 M^−1cm^−1 | 575 | 597 | 0.53 | 0.832 | CC1(C)C2=CC(=N)C=CC2=C(c2c(F)c(F)c(F)c(F)c2C(=O)O)c2ccc(N)cc21 [compound 71, 4,5,6,7^−Tetrafluoro-carborhodamine 110] |  |  |  |  |  | 
124,000 M^−1cm^−1 | 621 | 638 | 0.37 | 10.8 | CCC1=CC2=C(c3c(F)c(F)c(F)c(F)c3C(=O)O)c3cc4c(cc3C(C)(C)C2=CC1=NC)NCCC4 [compound 47, 4,5,6,7^−Tetrafluoro-carbo-Q-rhodamine] |  |  |  |  |  | 
 |  |  |  |  | CC1=CC(C)(C)N(C)c2cc3c(cc21)C(c1c(F)c(F)c(F)c(F)c1C(=O)[O-])=c1cc2c(cc1[Si]3(C)C)=[N+](C)C(C)(C)C=C2C [compound 38, 2^−(1,2,2,4,8,10,10,11,13,13^−Decamethyl-2,10,11,13-tetrahydrosilino[3,2^−g:5,6^−g]diquinolin-6^−ylium-6(1H)-yl)-3,4,5,6^−tetrafluorobenzoate] | 5,700 M^−1cm^−1 | 754 | 774 |  | 0.3251 | 
 |  |  |  |  | CC1=CC(C)(C)Nc2cc3[o+]c4cc5c(cc4c(-c4ccccc4C(=O)[O-])c3cc21)C(C)=CC(C)(C)N5 [compound 101, 2^−(2,2,4,8,10,10^−Hexamethyl-1,2,10,11^−tetrahydropyrano[3,2-g:5,6^−g′]diquinolin-13^−ium-6^−yl)benzoate] | 94,100 M^−1cm^−1 | 573 | 595 | 0.68 | 5.14 | 
124,000 M^−1cm^−1 | 576 | 597 | 0.71 | 7.50 | [2H]C1([2H])N(c2ccc3c(-c4c(F)c(F)c(F)c(F)c4C(=O)[O-])c4ccc(=[N+]5C([2H])([2H])C([2H])([2H])C([2H])([2H])C5([2H])[2H])cc-4oc3c2)C([2H])([2H])C([2H])([2H])C1([2H])[2H] [compound 8, JFX576] |  |  |  |  |  | 
 |  |  |  |  | CC1=CC(C)(C)Nc2cc3[o+]c4cc5c(cc4c(-c4c(F)c(F)c(F)c(F)c4C(=O)[O-])c3cc21)C(C)=CC(C)(C)N5 [compound 20, 2,3,4,5^−Tetrafluoro-6^−(2,2,4,8,10,10^−hexamethyl-1,2,10,11-tetrahydropyrano[3,2^−g:5,6^−g]diquinolin-13^−ium-6^−yl)benzoate] | 117,000 M^−1cm^−1 | 596 | 614 | 0.64 | 7.65 | 
 |  |  |  |  | Si-Q-rhodamine [compound 95] |  |  |  |  |  | 637
 |  |  |  |  | CC1CC(C)(C)Nc2cc3c(cc21)C(c1c(F)c(F)c(F)c(F)c1C(=O)O)=c1cc2c(cc1[Si]3(C)C)=NC(C)(C)CC2C (stereo not drawn) [compound 34, 2,3,4,5^−Tetrafluoro-6^−(2,2,4,8,10,10,13,13^−octamethyl-2,3,4,8,9,10,11,13^−octahydrosilino[3,2^−g:5,6^−g]diquin-olin-6^−ylium-6(1H)-yl)benzoate] | 129,000 M^−1cm^−1 | 660 | 676 | 0.28 | 1.90 | 
101,000 M^−1cm^−1 | 598 | 620 | 0.51 | 1.51 | CCC1=CC2=C(c3ccccc3C(=O)O)c3cc4c(cc3C(C)(C)C2=CC1=NC)NCCC4 [compound 94, Carbo-Q-rhodamine] |  |  |  |  |  | 
 |  |  |  |  | CC1=CC(C)(C)N(C)c2cc3c(cc21)C(c1ccccc1C(=O)[O-])=c1cc2c(cc1[Si]3(C)C)=[N+](C)C(C)(C)C=C2C [compound 104, 2^−(1,2,2,4,8,10,10,11,13,13^−Decamethyl-2,10,11,13-tetrahydrosilino[3,2^−g:5,6^−g′]diquinolin-6^−ylium-6(1H)-yl)-benzoate] | 1,200 M^−1cm^−1 | 720 | 740 |  | 0.0045 | 
 |  |  |  |  | CC1=CC(C)(C)Nc2cc3c(cc21)C(c1ccccc1C(=O)O)=c1cc2c(cc1[Si]3(C)C)=NC(C)(C)C=C2C [compound 102, 2^−(2,2,4,8,10,10,13,13-Octamethyl-2,10,11,13-tetrahydrosilino[3,2^−g:5,6^−g]diquinolin-6^−ylium-6(1H)-yl)-benzoate] | 4,800 M^−1cm^−1 | 686 | 711 |  | 0.0143 | 

Molecule | ε ([1]; rhodamine derivatives) | λabs ([1]; rhodamine derivatives) [nm] | λem ([1]; rhodamine derivatives) [nm] | Φf ([2]; rhodamine derivatives) | KL-Z ([3]; rhodamine derivatives) | ε ([1]; quinolinyl rhodamines) | λabs ([1]; quinolinyl rhodamines) [nm] | λem ([1]; quinolinyl rhodamines) [nm] | Φf ([2]; quinolinyl rhodamines) | KL-Z ([3]; quinolinyl rhodamines) | λabs [4] [nm]
[2H]C1([2H])N(c2ccc3c(c2)[Si](C)(C)C2=CC(=[N+]4C([2H])([2H])C([2H])([2H])C([2H])([2H])C4([2H])[2H])C=CC2=C3c2c(F)c(F)c(F)c(F)c2C(=O)[O-])C([2H])([2H])C([2H])([2H])C1([2H])[2H] [compound 25, JFX673] | 156,000 M^−1cm^−1 | 673 | 690 | 0.42 | 1.56 |  |  |  |  |  | 
C[Si]1(C)C2=CC(=N)C=CC2=C(c2c(F)c(F)c(F)c(F)c2C(=O)O)c2ccc(N)cc21 [compound 72, 4,5,6,7^−Tetrafluoro-Si-rhodamine 110] | 77,800 M^−1cm^−1 | 611 | 627 | 0.42 | 0.0195 |  |  |  |  |  | 
O=C([O-])c1c(F)c(F)c(F)c(F)c1-c1c2cc3c(cc2[o+]c2cc4c(cc12)CCCN4)NCCC3 [compound 14, 4,5,6,7^−Tetrafluoro-Q-rhodamine] | 118,000 M^−1cm^−1 | 558 | 576 | 0.80 | 8.57 |  |  |  |  |  | 
CCc1cc2c(c3c1=[N+](C)CCC3)[Si](C)(C)c1c(cc3c4c1CCCN4CCC3)C=2c1c(F)c(F)c(F)c(F)c1C(=O)[O-] [compound 31, JF698] | 147,000 M^−1cm^−1 | 698 | 712 | 0.28 |  |  |  |  |  |  | 
